Laboratory results reported in paper PMC12504763, “Antiproliferation, 3D-multicellular spheroid and VEGFR-2 inhibitory properties of spiroindolin-2-ones with phosphonate function” (Scientific Reports, 2025).
Values joined by “and” are separate entries in the source; they are usually repeats but may differ in a detail not shown here. Equal entries are not always repeated. Where two headings read alike, the source gives them in different places.

Legend:
[1] = test system: MCF7 (breast) cancer cell line; test: 2D-monolayer antiproliferation (MTT) against MCF7; assay type: cell-based, human; conditions: for IC50: Homo sapiens, MTT, 72 h incubation, MCF7 breast, read-out: IC50, μM ± SEM MCF7; for SI (selectivity index) MCF7: IC50 of RPE1 normal cell/IC50 of MCF7
TNF-α [2] = test: TNF-α inhibitory properties (ELISA), MCF7 cell lysate; assay type: cell-based, human; conditions: at 10 μM; for TNF-α pg/mL (± SEM) MCF7: control 83.26 ± 1.1
[3] = test system: PaCa2 (pancreatic) cancer cell line; test: 2D-monolayer antiproliferation (MTT) against PaCa2; assay type: cell-based, human; conditions: for 1/(observed property): 1/observed IC50 (μM), PaCa2; for IC50: Homo sapiens, PaCa-2, MTT, 72 h incubation, PaCa2 pancreatic, read-out: IC50, μM ± SEM PaCa2; for SI (selectivity index) PaCa2: IC50 of RPE1 normal cell/IC50 of PaCa2
VEGFR-2 [4] = target: T1, VEGFR-2 (Homo sapiens, UniProt P35968); test: cell-based; assay type: cell-based; conditions: for inhibition at 10 µM: HCT-116, HCT116; for VEGFR-2 pg/mL ± SEM HCT116: at 10 μM, control 317.80 ± 3.5
T1 construct: endogenous in cells; host or cells: HCT116, PaCa2, MCF7 (human cancer cell lines, ATCC origin)
T1 sequence (P35968 20-1356): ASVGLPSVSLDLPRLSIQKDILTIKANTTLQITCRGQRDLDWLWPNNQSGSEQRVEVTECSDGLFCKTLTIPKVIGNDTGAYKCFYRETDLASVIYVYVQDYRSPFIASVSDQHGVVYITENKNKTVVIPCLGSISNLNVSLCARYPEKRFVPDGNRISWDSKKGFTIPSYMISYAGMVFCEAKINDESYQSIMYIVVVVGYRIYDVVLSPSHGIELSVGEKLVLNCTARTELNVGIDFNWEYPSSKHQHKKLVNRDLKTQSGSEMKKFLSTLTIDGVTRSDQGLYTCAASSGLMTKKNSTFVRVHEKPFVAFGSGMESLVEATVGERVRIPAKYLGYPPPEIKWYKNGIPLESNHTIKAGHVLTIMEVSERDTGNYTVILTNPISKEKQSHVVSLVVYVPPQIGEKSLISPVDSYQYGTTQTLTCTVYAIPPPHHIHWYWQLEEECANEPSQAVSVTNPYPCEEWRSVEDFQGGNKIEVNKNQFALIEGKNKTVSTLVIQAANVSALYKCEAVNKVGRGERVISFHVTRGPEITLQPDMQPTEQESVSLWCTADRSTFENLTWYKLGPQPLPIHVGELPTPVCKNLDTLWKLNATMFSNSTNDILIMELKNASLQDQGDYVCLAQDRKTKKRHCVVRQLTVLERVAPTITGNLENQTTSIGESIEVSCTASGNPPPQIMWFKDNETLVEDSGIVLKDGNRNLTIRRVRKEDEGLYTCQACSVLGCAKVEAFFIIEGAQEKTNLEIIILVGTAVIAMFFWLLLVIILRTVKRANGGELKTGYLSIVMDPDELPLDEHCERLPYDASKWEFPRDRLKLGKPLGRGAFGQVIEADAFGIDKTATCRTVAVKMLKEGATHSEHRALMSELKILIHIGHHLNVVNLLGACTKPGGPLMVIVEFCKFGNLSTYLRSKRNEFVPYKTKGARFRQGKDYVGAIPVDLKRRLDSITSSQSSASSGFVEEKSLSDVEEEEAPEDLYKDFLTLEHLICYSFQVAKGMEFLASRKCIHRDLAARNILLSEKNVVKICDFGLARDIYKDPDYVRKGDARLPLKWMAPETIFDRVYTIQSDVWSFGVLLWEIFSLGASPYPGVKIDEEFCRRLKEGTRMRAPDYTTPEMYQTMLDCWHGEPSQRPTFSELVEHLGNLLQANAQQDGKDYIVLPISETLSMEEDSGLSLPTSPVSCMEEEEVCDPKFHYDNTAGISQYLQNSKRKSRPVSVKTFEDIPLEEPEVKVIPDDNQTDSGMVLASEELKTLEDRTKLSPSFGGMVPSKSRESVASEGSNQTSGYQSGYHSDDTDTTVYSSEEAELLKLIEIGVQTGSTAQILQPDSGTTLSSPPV

TNF-α [5] = test: TNF-α inhibitory properties (ELISA), PaCa2 cell lysate; assay type: cell-based, human; conditions: at 10 μM; for TNF-α pg/mL (± SEM) PaCa2: control 111.8 ± 2.0
[6] = test system: HCT116 (colon) cancer cell line; test: 2D-monolayer antiproliferation (MTT) against HCT116; assay type: cell-based, human; conditions: for IC50: Homo sapiens, HCT-116; for SI (selectivity index) HCT116: IC50 of RPE1 normal cell/IC50 of HCT116
CAM blood vessel network = test: Chick chorioallantoic membrane (CAM) anti-angiogenic assay; assay type: in vivo, chicken; conditions: 20 μL of 660 μM, 3 days; for Diameter of blood vessel (μm ± SEM): CAM test, control 459.7 ± 13.8
Method: CAM assay is an established xenograft technique for investigating the angiogenic effect due to the high resemblance of the human vascularized epithelium basement membrane with that of the chorioallantoic layer containing mainly type IV collagen[84]–[86].
Fig. 10 Images of light microscopy for anti-angiogenic evaluation of the tested compounds using CAM assay. […] The glass slide was placed on the surface of the CAM blood vessel network and left in an incubator at 37 °C for 3 days. The CAM blood vessel network was carefully cut and imaged under a light microscope (40 × magnification).
Fertilized white chicken eggs were incubated in a 37 °C incubator with constant humidity. On day 8, a small squared window was opened allowing the detachment of the growing CAM and shell. The opening was covered with an elastic bandage. […] The CAM was then sealed with a bandage and placed back in the incubator. CAMs were examined daily until day 12 (3 days), the vascularized membranes were then cut around the glass slide and fixed in 5% formalin. Images were taken with an Evos microscope at 40x and 100x magnification^9. Main blood vessel in the microscopic images of controls and samples were quantified by imageJ and analyzed for significant differences (n = 4).

HCT116 3D-spheroid = HCT116 3D-spheroid at 50 μM, relative to control
COX-2 = target: T2, COX-2 (Homo sapiens, UniProt P35354); test: biochemical; conditions: for inhibition at 10 µM: 3 replicates, read-out: % Inhibition of COX-2 ± SEM; for SI (selectivity index, COX-2/COX-1): at 10 μM
T2 construct: purchased BioVision incorporated USA K548–100
T2 sequence (P35354 18-604): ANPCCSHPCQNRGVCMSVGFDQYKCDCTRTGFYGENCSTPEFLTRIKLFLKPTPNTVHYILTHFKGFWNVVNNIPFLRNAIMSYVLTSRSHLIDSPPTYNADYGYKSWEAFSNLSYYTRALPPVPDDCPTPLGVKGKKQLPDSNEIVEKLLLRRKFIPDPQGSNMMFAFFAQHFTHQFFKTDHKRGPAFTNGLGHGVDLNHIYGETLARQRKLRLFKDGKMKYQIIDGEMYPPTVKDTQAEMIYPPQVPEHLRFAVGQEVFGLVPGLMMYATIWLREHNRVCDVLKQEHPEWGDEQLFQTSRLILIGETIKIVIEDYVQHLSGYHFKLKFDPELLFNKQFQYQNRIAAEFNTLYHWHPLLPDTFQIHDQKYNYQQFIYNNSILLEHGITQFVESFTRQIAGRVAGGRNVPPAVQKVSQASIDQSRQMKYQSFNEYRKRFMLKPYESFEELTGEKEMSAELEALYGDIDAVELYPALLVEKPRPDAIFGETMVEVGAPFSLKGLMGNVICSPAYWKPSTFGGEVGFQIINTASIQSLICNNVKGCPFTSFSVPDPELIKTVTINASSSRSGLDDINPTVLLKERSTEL

[7] = test system: RPE1 (normal human immortalized retinal pigment epithelial cell line); test: cells; assay type: cell-based; conditions: Homo sapiens, RPE-1; MTT, normal RPE1 cell; read-out: IC50, μM ± SEM RPE1
[8] = test system: A549 (lung) cancer cell line; test: 2D-monolayer antiproliferation (MTT) against A549; assay type: cell-based, human; conditions: for IC50: Homo sapiens, MTT, 72 h incubation, A549 lung, read-out: IC50, μM ± SEM A549; for SI (selectivity index) A549: IC50 of RPE1 normal cell/IC50 of A549
VEGFR-2 [9] = target: T1, VEGFR-2; test: cell-based; assay type: cell-based; conditions: for inhibition at 10 µM: PaCa-2, PaCa2; for VEGFR-2 pg/mL ± SEM PaCa2: at 10 μM, control 326.80 ± 1.9
TNF-α [10] = test: TNF-α inhibitory properties (ELISA), HCT116 cell lysate; assay type: cell-based, human; conditions: at 10 μM; for TNF-α pg/mL (± SEM) HCT116: control 95.74 ± 0.5
VEGFR-2 [11] = target: T1, VEGFR-2; test: cell-based; assay type: cell-based; conditions: for inhibition at 10 µM: MCF7; for VEGFR-2 pg/mL ± SEM MCF7: at 10 μM, control 258.70 ± 2.3
COX-1 = target: T3, COX-1 (Ovis aries, UniProt P05979); test: biochemical; conditions: 3 replicates, read-out: % Inhibition of COX-1 ± SEM
T3 construct: purchased BioVision incorporated USA K548–100
T3 sequence (P05979 25-600): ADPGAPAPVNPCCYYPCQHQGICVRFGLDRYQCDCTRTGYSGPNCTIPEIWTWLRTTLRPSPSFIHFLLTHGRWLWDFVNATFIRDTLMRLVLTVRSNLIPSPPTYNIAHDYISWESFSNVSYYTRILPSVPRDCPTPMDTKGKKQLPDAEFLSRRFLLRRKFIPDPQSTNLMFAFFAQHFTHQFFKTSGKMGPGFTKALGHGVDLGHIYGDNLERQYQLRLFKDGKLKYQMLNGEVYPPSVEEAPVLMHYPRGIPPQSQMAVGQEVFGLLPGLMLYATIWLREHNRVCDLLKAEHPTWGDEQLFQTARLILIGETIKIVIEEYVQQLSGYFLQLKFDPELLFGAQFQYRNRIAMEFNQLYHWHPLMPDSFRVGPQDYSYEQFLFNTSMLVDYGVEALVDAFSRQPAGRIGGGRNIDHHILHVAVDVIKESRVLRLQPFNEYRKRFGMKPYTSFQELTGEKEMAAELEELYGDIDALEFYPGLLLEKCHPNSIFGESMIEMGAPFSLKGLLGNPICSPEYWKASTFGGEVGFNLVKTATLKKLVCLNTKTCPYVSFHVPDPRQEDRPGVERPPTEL

[12] = MTT, 72 h incubation, HCT116 colon, read-out: IC50, μM ± SEM HCT116
[13] = log of observed IC50 (μM), HCT116, read-out: Log(observed property) (converted)

SMILES: CCOP(=O)(OCC)N1C/C(=C\c2ccc(OC)cc2)C(=O)C2(C1)C(c1ccc(OC)cc1)CN(C)C21C(=O)Nc2ccccc21 (stereo not shown) [Compound 17p, Diethyl (E)-[5′′-(4-methoxybenzylidene)-4′-(4-methoxyphenyl)-1′-methyl-2,4′′-dioxodispiro[indoline-3,2′-pyrrolidine-3′,3′′-piperidin]-1′′-yl]phosphonate]
- IC50 [1]: 5.43 ± 0.14 µM
- SI (selectivity index) MCF7 [1]: 2.6
- TNF-α % inhibition MCF7 (TNF-α [2]): 65.7%
- TNF-α pg/mL (± SEM) MCF7 (TNF-α [2]): 28.56 ± 2.9 pg/mL
- 1/(observed property) [3]: 0.1367
- IC50 [3]: 7.32 ± 0.226 µM
- SI (selectivity index) PaCa2 [3]: 1.9
- inhibition at 10 µM (VEGFR-2 [4]): 90%
- VEGFR-2 pg/mL ± SEM HCT116 (VEGFR-2 [4]): 31.80 ± 0.8 pg/mL
- TNF-α pg/mL (± SEM) PaCa2 (TNF-α [5]): 25.8 ± 1.8 pg/mL
- IC50 [6, 12]: 5.51 ± 0.138 µM
- IC50 [6, 13]: 5.51 µM
- SI (selectivity index) HCT116 [6]: 2.6
- Diameter of blood vessel (μm ± SEM) (CAM blood vessel network): 79.3 ± 3.3 μm
- %CT (± SEM), percentage cytotoxicity (HCT116 3D-spheroid): 68.3% and 68.3 ± 0.6%
- inhibition at 10 µM (COX-2): 53.5 ± 2.1%
- SI (selectivity index, COX-2/COX-1) (COX-2): 1.10
- IC50 [7]: 14.2 ± 0.638 µM
- IC50 [8]: 13 ± 0.284 µM
- SI (selectivity index) A549 [8]: 1.1
- inhibition at 10 µM (VEGFR-2 [9]): 93.3%
- VEGFR-2 pg/mL ± SEM PaCa2 (VEGFR-2 [9]): 21.76 ± 0.4 pg/mL
- TNF-α pg/mL (± SEM) HCT116 (TNF-α [10]): 26.21 ± 1.3 pg/mL
- inhibition at 10 µM (VEGFR-2 [11]): 81.3%
- VEGFR-2 pg/mL ± SEM MCF7 (VEGFR-2 [11]): 48.30 ± 0.4 pg/mL
- inhibition at 10 µM (COX-1): 51.1 ± 2.7%

SMILES: CCOP(=O)(OCC)N1C/C(=C\c2cccs2)C(=O)C2(C1)C(c1cccs1)CN(C)C21C(=O)Nc2ccc(Cl)cc21 (stereo not shown) [Compound 17s, Diethyl (E)-[5-chloro-1′-methyl-2,4′′-dioxo-4′-(thiophen-2-yl)-5′′-(thiophen-2-ylmethylene)dispiro[indoline-3,2′-pyrrolidine-3′,3′′-piperidin]-1′′-yl]phosphonate]
- IC50 [1]: 4.64 ± 0.068 µM
- SI (selectivity index) MCF7 [1]: 2.2
- TNF-α % inhibition MCF7 (TNF-α [2]): 1.9%
- TNF-α pg/mL (± SEM) MCF7 (TNF-α [2]): 81.64 ± 3.7 pg/mL
- 1/(observed property) [3]: 0.163
- IC50 [3]: 6.13 ± 0.131 µM
- SI (selectivity index) PaCa2 [3]: 1.7
- inhibition at 10 µM (VEGFR-2 [4]): 83.1%
- VEGFR-2 pg/mL ± SEM HCT116 (VEGFR-2 [4]): 53.80 ± 0.9 pg/mL
- TNF-α % inhibition PaCa2 (TNF-α [5]): 19.0%
- TNF-α pg/mL (± SEM) PaCa2 (TNF-α [5]): 90.6 ± 2.8 pg/mL
- IC50 [6, 12]: 5.42 ± 0.288 µM
- IC50 [6, 13]: 5.42 µM
- SI (selectivity index) HCT116 [6]: 1.9
- % Inhibition of the blood vessels in CAM test (CAM blood vessel network): 86.7%
- Diameter of blood vessel (μm ± SEM) (CAM blood vessel network): 61.3 ± 4.3 μm
- %CT (± SEM), percentage cytotoxicity (HCT116 3D-spheroid): 77.9% and 77.9 ± 1.2%
- inhibition at 10 µM (COX-2): 56.3 ± 2.3%
- SI (selectivity index, COX-2/COX-1) (COX-2): 0.83
- IC50 [7]: 10.2 ± 0.545 µM
- IC50 [8]: 8.1 ± 0.091 µM
- SI (selectivity index) A549 [8]: 1.3
- inhibition at 10 µM (VEGFR-2 [9]): 91.9%
- VEGFR-2 pg/mL ± SEM PaCa2 (VEGFR-2 [9]): 26.50 ± 0.5 pg/mL
- TNF-α % inhibition HCT116 (TNF-α [10]): 9.6%
- TNF-α pg/mL (± SEM) HCT116 (TNF-α [10]): 86.57 ± 2.0 pg/mL
- inhibition at 10 µM (VEGFR-2 [11]): 81.6%
- VEGFR-2 pg/mL ± SEM MCF7 (VEGFR-2 [11]): 47.60 ± 0.6 pg/mL
- inhibition at 10 µM (COX-1): 53.8 ± 2.8%
